From patent US12263248B2, “Compounds and compositions for intracellular delivery of therapeutic agents” (ModernaTX, Inc., priority 2018, dated 2025)

Key:
[1] = Particle size and polydispersity index of nanoparticle compositions (Zetasizer Nano ZS); assay type: physicochemical
Outline: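 Measured in 1×PBS by Zetasizer Nano ZS.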

[2] = Encapsulation efficiency of RNA (QUANT-IT RIBOGREEN RNA assay); assay type: physicochemical; settings: for % EE: Table 1D, for subcutaneous administration, # formulated with hEPO mRNA
Outline: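 RiboGreen fluorescence (ex ~480, em ~520 nm) compared between intact samples and Triton X-100-lysed samples after 15 min at 37 °C in TE buffer, pH 7.5. Percent free RNA is the blank-corrected intact/disrupted ratio.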

[3] = Apparent (surface) pKa of the LNP formulation (TNS assay); assay type: physicochemical; settings: for pKa: Table 1A
Outline: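 Fluorescence of TNS probe added to LNP samples (mRNA 0.04 mg/mL) was read across 21 buffers of pH about 3-12, triplicate per pH. The inflection point of the sigmoidal fluorescence-vs-pH curve, […], gives apparent pKa; method validated in 1× PBS and Tris/sucrose buffer.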

luciferase (Luc) mRNA [4] = test: Luc expression, whole body bioluminescence after intravenous administration to mice; assay type: in vivo; settings: for Lipid/MC3 AUC / AUC (p/s * h): Table 3D; for Lipid/MC3 AUC / AUC (p/s * h) / Novel lipid/MC3 ratio, 6 hr. timepoint, i.v. / 6 h BLI Lipid/MC3: intravenous; for AUC (p/s * h): Luc; for Novel lipid/MC3 ratio, 6 hr. timepoint, i.v.: luciferase, relative to MC3, Table 3G; for Total Flux 3 hours / Total Flux 6 hours / Total Flux 24 hours: mice, i.v., 0.5 mg/kg, Luc mRNA; for 6 h BLI Lipid/MC3: Table 3E
Outline: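 Bioluminescence, read as region-of-interest total flux at 3, 6 and 24 h, followed a single 0.5 mg/kg intravenous dose of Luc mRNA-loaded nanoparticles in mice (n=6). Luciferin substrate (200 μL, 15 mg/mL in PBS) was injected intraperitoneally into CD-1 mice 15 minutes ahead of each imaging point.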

[5] = Lipid clearance: lipid level in mouse liver tissue (LC-MS/MS); assay type: in vivo; settings: for % Dose Remaining in Liver 6 h: Table 3D, intravenous; for % Remaining dose at 6 h / % Remaining dose at 24 h: Table 3E, mouse liver
Description: Quantification of Lipid by LC-MS/MS: Liver samples were homogenized following addition of 19 eq. (w/v) of water (DF=20). Protein was precipitated and analyzed against calibration standards prepared in matching blank. Chromatographic separation and quantification was accomplished with a LC-MS/MS System. Samples were injected and separated via HPLC A triple-quadrupole MS/MS system operated in positive ion mode was used for signal detection.

luciferase (Luc) mRNA [6] = test: Luc expression in liver, lung, spleen and femur 6 hours after intravenous administration; assay type: in vivo; settings: mice, 0.5 mpk; for Total Flux Liver / Total Flux Lung / Total Flux Spleen: intravenous
Outline: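 LNP-formulated mRNA given IV to mice (n=3) at 0.5 mpk; at 6 h, bioluminescence imaged ex vivo 15 min after IP D-luciferin (15 mg/mL, 200 μL), organs imaged within 25 min. Values are total flux by region of interest.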

hEPO mRNA [7] = test: hEPO expression after subcutaneous administration to mice; assay type: in vivo, female CD-1 mice; settings: for hEPO expression Lipid/Compound 18 ratio, 6 hr. / hEPO expression Lipid/Compound 18 ratio, AUC: 0.5 mpk
Description: The effect of the lipids of the disclosure on protein expression upon subcutaneous administration was studied. Formulations containing lipids of the disclosure and an mRNA expressing luciferase or hEPO were administered subcutaneously to female CD-1 mice at 0.5 mpk. Expression levels were obtained via whole body luminescent imaging (BLI) at 3, 6 and 24 hours after injection and expression levels in liver, spleen and at the injection site were evaluated ex vivo after 24 hours. […] See also Tables 35 and 36, and FIGS. 19 and 27.
Table 36 summarizes the hEPO expression levels using various nanoparticle compositions of the disclosure as compared to the hEPO expression level using a formulation containing MC3 or Compound 18, following subcutaneous administration, as described above.

hEPO mRNA [8] = test: hEPO expression after intravenous administration to rats; assay type: in vivo, rat; settings: Table 19B
Description: The expression of hEPO and cytokine induction in rats intravenously administered a nanoparticle composition at a dose of 2.0 mpk was measured at 6 h.
(§1) The expression of hEPO in rats intravenously administered a nanoparticle composition at a dose of 0.2 mpk or 2.0 mpk was measured at 6 hours. Table 16 summarize the ratio of hEPO expression levels using various nanoparticle compositions as compared to the hEPO expression level using MC3 formulation and the lipid levels in the liver measured 48 hours after administration, as described above. Tables 17 and 18 summarize the lipid levels in the liver and spleen measured 48 hours after administration of Compounds 28, 33, 53, and 54. Liver and spleen levels represent the average values calculated for 3 rats in each group. As is shown in Tables 17 and 18, less than 10% of Compounds 28, 33, 53, and 54 remained in the liver after 48 hours, while greater than 60% of MC3 remained.
The expression of hEPO induced by intravenous administration to rats of nanoparticle compositions at various doses was measured at 2, 4, 6, 8, 24, and 48 hour time points. FIGS. 3-6 respectively summarize the hEPO expression measured upon intravenous administration of formulations including Compounds 26, 18, 25, and MC3 to rat at various doses. The lipid levels of Compound 26 in the liver after 48 hours were about 19%.
(§2) 005781 The expression of hEPO and lipid levels in the liver and spleen in rats intravenously administered a nanoparticle composition at a dose of 0.2 mpk was measured at various time points. Compounds 18 and 25 were selected for comparison with MC3. Lipids were formulated according to the standard MC3 formulation described above. Rats were administered intravenously a single 0.2 mpk dose and expression monitored at 0.25, 0.5, 1, 2, 4, 8, 24, and 48 hours after administration.
Blood collection and analysis for hEPO. Blood was collected from mice or rats via the tail vein and hEPO concentrations were determined using a hEPO ELISA assay.

[9] = Residual lipid levels in rat liver and spleen (UPLC-MS); assay type: in vivo; settings: Table 19B, liver, 24 h
Description: At 48 h liver tissue was harvested for lipid quantification. To pre-weighed tissues, Milli-Q water was added (900 μL water per 100 mg tissue). Tissues were homogenized using an Omni probe homogenizer until uniform. 50 μL of samples and matrix calibration standards were aliquoted into a 96-well plate. 50 μL of blank matrix for matrix blanks and control blanks were aliquoted. 400 μL is spiking solution were manually added to all samples except matrix blanks. 400 μL of 50:50 ACN:IPA were manually added to matrix blanks. The plate was covered and the samples vortexed and centrifuged for 5 minutes at >3000 rpm. 200 μL of the samples were transferred into a clean 96-well plate for analysis. Samples were analyzed on a Waters Acquity UPLC using a Higgins Analytical Clipeus C8 column ([…], 30×2.1 mm) and a gradient of either 70-95% or 60-95% (Mobile Phase A: 5 mM ammonium formate in 50:50:1 H2O:MeOH:formic acid; Mobile Phase B: 5 mM ammonium formate in 100:1 MeOH:formic acid) over 1.3 min at 1.2 mL/min (column temperature 55° C.). Detection was based on electrospray ionization (ESI) in positive mode using a Sciex API5500 Mass Spectrometer.
as §1, §2

[10] = Table 1A, lipid:DSPC:cholesterol:PEG-DMG 50:10:38.5:1.5 mol %
[11] = Table 1D, for subcutaneous administration, # formulated with hEPO mRNA
[12] = second column (head also says 6 h)
[13] = Table 1B, formulated with hEPO mRNA

Structure (SMILES)	PDI ([1]; Table 1A)	Size (nm) [1, 10] [nm]	PDI [1, 11]	Size (nm) [1, 11] [nm]	EE (%) ([2]; Table 1A)	% EE [2] [%]	pKa [3]	Lipid/MC3 AUC (luciferase (Luc) mRNA [4])	AUC (p/s * h) (luciferase (Luc) mRNA [4])	Novel lipid/MC3 ratio, 6 hr. timepoint, i.v. (luciferase (Luc) mRNA [4])	Total Flux 3 hours (luciferase (Luc) mRNA [4])	Total Flux 6 hours (luciferase (Luc) mRNA [4])	Total Flux 24 hours (luciferase (Luc) mRNA [4])	% Dose Remaining in Liver 6 h [5, 12] [%]	% Dose Remaining in Liver 6 h [5] [%]	Total Flux Liver (luciferase (Luc) mRNA [6])	Total Flux Lung (luciferase (Luc) mRNA [6])	Total Flux Spleen (luciferase (Luc) mRNA [6])	hEPO expression Lipid/Compound 18 ratio, 6 hr. (hEPO mRNA [7])	hEPO expression Lipid/Compound 18 ratio, AUC (hEPO mRNA [7])	also measured
CCCCCCCCCC(=O)OCCCCCCCN(CCO)CCCCCCCC(=O)OC(CCCCCCCC)CCCCCCCC [Compound 96, 7-((8-(Heptadecan-9-yloxy)-8-oxooctyl)(2-hydroxyethyl)amino)heptyl decanoate]	0.160	120.5	0.14	82.6	79.04	94.4	6.600	6.3	1.209E+012	6.11	4.54E+10	1.05E+11	3.86E+09	<1	<1	1.56E+10	3.43E+07	3.39E+08	1.98	1.72	Flux in the liver (luciferase (Luc) mRNA [6]; i.v., in words): highest
CCCCCCCCCOC(=O)C(C)CCCCCCN(CCO)CCCCCCCOC(=O)C(CCCCCCCC)CCCCCCCC (stereo not drawn) [Compound 163, 7-((2-Hydroxyethyl)(7-methyl-8-(nonyloxy)-8-oxooctyl)amino)heptyl 2-octyldecanoate]	0.10	88.3	0.10	78.0	93.2	92.8	6.41												0.99	0.96	6 h BLI Lipid/MC3 (luciferase (Luc) mRNA [4]): 3.45; % Remaining dose at 6 h [5]: 34.8%; % Remaining dose at 24 h [5]: 19.4%
CCCCCCCCCOC(=O)C(C)CCCCCCN(CCO)CCCCCCCC(=O)OC(CCCCCCCC)CCCCCCCC (stereo not drawn) [Compound 164, Nonyl 8-((8-(heptadecan-9-yloxy)-8-oxooctyl)(2-hydroxyethyl)amino)-2-methyloctanoate]	0.13	84.5	0.08	75.7	91.2	94.1	6.39												0.50	0.56	6 h BLI Lipid/MC3 (luciferase (Luc) mRNA [4]): 1.24; % Remaining dose at 6 h [5]: 39.0%; % Remaining dose at 24 h [5]: 26.2%
CCCCCCCCCC(=O)OCCCCCCCN(CCO)CCCCCCCOC(=O)C(CCCCCCCC)CCCCCCCC [Compound 151, 7-((7-(Decanoyloxy)heptyl)(2-hydroxyethyl)amino)heptyl 2-octyldecanoate]	0.140	105.7	0.13	77.6	87.86	95.4	6.593	3.7	7.010E+011	3.29	5.63E+10	5.68E+10	2.23E+09	<1	<1	4.72E+09	9.20E+06	9.27E+07	0.73	0.71	Apparent pKa ([3]; Table 3G): 6.59
CCCCCCCCCOC(=O)CCCCCCCN(CCCCCCCC(=O)OC(CCCCCCCC)CCCCCCCC)CCCN/C(=N/S(C)(=O)=O)N(C)C [Compound 233, Heptadecan-9-yl (Z)-8-((3-(3,3-dimethyl-2-(methylsulfonyl)guanidino)propyl)(8-(nonyloxy)-8-oxooctyl)amino)octanoate]	0.11	66.9	0.13	87.0	97.81	97.5															PDI [1, 13]: 0.21; Size (nm) [1, 13]: 93.7 nm; EE (%) [2, 13]: 97.6%; AUC (hEPO) (hEPO mRNA [8]): 129000 pg·h/mL; Lipid/MC3 ([hEPO] ratio) (hEPO mRNA [8]; relative to MC3): 0.00664; Lipid/MC3 AUC (hEPO mRNA [8]; relative to MC3): 0.01; [hEPO] (hEPO mRNA [8]; species, dose and time not given): 9800 pg/mL; % dose remaining, liver, 24 h [9]: 0.07%; Novel lipid/MC3 expression ratio, 6 hr. time point, s.c. hEPO 0.5 mpk (hEPO mRNA [7]; relative to MC3): 0.03
